Legend:
Type in all cases: ADME, cell-based
CCRF S-180 [1] = experiment: Cellular uptake in mouse S180 cells after 30 mins; conditions: ccrf s-180, 0.5 h
CCRF S-180 [2] = experiment: Cellular uptake in mouse S180 cells after 60 mins; conditions: ccrf s-180, 1 h
CCRF S-180 [3] = experiment: Cellular uptake in mouse S180 cells relative to [18F]FDG

Drug uptake (CCRF S-180 [1]) | Drug uptake (CCRF S-180 [2]) [%] | Drug uptake (CCRF S-180 [3]) [%] | Compound
Active | 9 | – | O=C[C@H]([18F])[C@@H](O)[C@H](O)[C@H](O)CO
– | 9 | < 7 | N[C@@H](Cc1ccc(OCC[18F])cc1)C(=O)O [FLORETYROSINE F18]
